In patent US20240294489A1 (Captor Therapeutics S.A., priority 2020, published 2024):

Columns and labels:
Type in all cases: cell-based
[1] = test system: IM-9; experiment: Cell viability, additional cell lines (CellTiter-Glo), IM-9; settings: Homo sapiens, IM-9, 72 h; read-out: Absolute IC50
Description: (§1) Tumor cells are grown at 37° C. in a humidified atmosphere with 5% CO2 in RPMI 1640 medium, supplemented with 10% (v/v) fetal calf serum and 50 μg/ml gentamicin for up to 20 passages, and are passaged once or twice weekly.
(§2) Cells are harvested from exponential phase cultures, counted and plated in 96 well flat-bottom microtiter plates at a cell density depending on the cell line's growth rate (4,000-20,000 cells/well depending on the cell line's growth rate, up to 60,000 for hematological cancer cell lines) in RPMI 1640 medium supplemented with 10% (v/v) fetal calf serum and 50 μg/ml gentamicin (140 μl/well). Cultures are incubated at 37° C. and 5% CO2 in a humidified atmosphere. After 24 h, 10 μl of test compounds or control medium are added and left on the cells for another 72 h. Compounds are serially diluted in DMSO, transferred in cell culture medium, and added to the assay plates by using a Tecan Freedom EVO 200 robotic platform. The DMSO concentration is kept constant at 0.3% v/v across the assay plate. Viability of cells is quantified by the CellTiter-Glo® cell viability assay (Promega G8462). After incubation of cells, 100 μl of CellTiter-Glo® One Solution Assay reagent are added to each well. Plates are shaken for 2 minutes to induce cell lysis and incubated for 20 minutes prior to reading luminescence (LU) by using the EnVision® Xcite multilabel plate reader (Perkin Elmer). […]

[2] = test system: U-266; experiment: Cell viability, additional cell lines (CellTiter-Glo), U-266; settings: Homo sapiens, U-266, 72 h; read-out: Absolute IC50
Description: as §1, §2

[3] = molecular target: T1, Ikaros (IKZF1) (Homo sapiens, UniProt Q13422+Q96SW2); experiment: Ikaros degradation assay, H929 cell line; settings: NCI-H929, H929 cells, 24 h, read-out: % of IKZF1 protein reduction
T1 construct: Ikaros degradation in the H929 cell line was investigated; endogenous in cells; host or cells: H929
In short: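 Cells were exposed to test compounds over a concentration range for 24 h at 37° C, 5% CO2, then lysed in RIPA buffer. Equal protein (BCA) was resolved by SDS-PAGE and immunoblotted. Band densitometry gave the protein levels used for evaluation.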

[4] = test system: SU-DHL-1; experiment: Cell viability, additional cell lines (CellTiter-Glo), SU-DHL-1; settings: Homo sapiens, SU-DHL-1, 72 h; read-out: Absolute IC50
Description: as §1, §2

[5] = test system: KG-1a; experiment: Cell viability, additional cell lines (CellTiter-Glo), KG-1a; settings: Homo sapiens, 72 h
Description: as §1, §2

[6] = test system: U-937; experiment: Cell viability, additional cell lines (CellTiter-Glo), U-937; settings: Homo sapiens, U-937, 72 h; read-out: Absolute IC50
Description: as §1, §2

[7] = test system: LP-1; experiment: Cell viability, additional cell lines (CellTiter-Glo), LP-1; settings: Homo sapiens, LP-1, 72 h; read-out: Absolute IC50
Description: as §1, §2

[8] = molecular target: T2, Aiolos (IKZF3) (Homo sapiens, UniProt Q96SW2+Q9UKT9); experiment: Aiolos degradation assay, H929 cell line; settings: H929 cells, 20 μM, 24 h
T2 construct: Aiolos degradation in the H929 cell line was investigated; endogenous in cells; host or cells: H929
Description: (§3) Cells were seeded on 6- or 12-well plates, and the compounds to be tested were added at the desired concentration range. […] After 24 h incubation (37° C., 5% CO2), cells were harvested, washed and cell lysates were prepared using RIPA lysis buffer. The amount of protein was determined via BCA assay, and the appropriate quantity was then loaded on the precast gel for the protein separation. After primary and secondary Ab staining, the membranes were washed and signals developed. The densitometry analysis was implemented to obtain the numeric values used later in the protein level evaluation process.

[9] = test system: Hep3B cells; experiment: Cell survival clonogenic assay, Hep3B; settings: 0.1-10 μM, crystal violet staining after 9-10 days
Description: To determine the ability of a single cell to form a colony (defined as a cluster of at least 50 cells), Kelly and Hep3B cells were maintained in RPM11640 (Kelly) or EMEM (Hep3B) medium, supplemented with penicillin/streptomycin and 10% FBS. The cells were counted and seeded on the 6-well plates, at the density of 1×10^3 cells per well, the compounds to be tested were added at the desired concentration range, and the cells were cultured at 37° C./5% CO2. After colony formation (9-10 days), the cells were washed and treated with 6.0% glutaraldehyde and 0.5% crystal violet mix for 30 min., followed by rinsing with water and drying at room temperature (RT).

[10] = test system: UOC-M1; experiment: Cell viability, additional cell lines (CellTiter-Glo), UOC-M1; settings: UOC-M1, 72 h
Description: as §1, §2

[11] = molecular target: T3, SALL4 (Homo sapiens, UniProt Q96SW2+Q9UJQ4); experiment: SALL4 degradation assay, Kelly cell line (Western blot densitometry); settings: Kelly cells, 100 nM, 24 h, average from n ≥ 2 experiments
T3 construct: SALL4 degradation in the Kelly cell line was investigated; endogenous in cells; host or cells: Kelly
Description: as §3

[12] = test system: MOLT-4; experiment: Cell viability, additional cell lines (CellTiter-Glo), MOLT-4; settings: Homo sapiens, MOLT-4, 72 h
Description: as §1, §2

[13] = test system: NCI-H929; experiment: Cell viability, additional cell lines (CellTiter-Glo), NCI-H929; settings: Homo sapiens, NCI-H929, 72 h; read-out: Absolute IC50
Description: as §1, §2

[14] = 9.5 μM, read-out: Test/Control viability at 9.5 μM

T1 sequence (Q13422 whole entry): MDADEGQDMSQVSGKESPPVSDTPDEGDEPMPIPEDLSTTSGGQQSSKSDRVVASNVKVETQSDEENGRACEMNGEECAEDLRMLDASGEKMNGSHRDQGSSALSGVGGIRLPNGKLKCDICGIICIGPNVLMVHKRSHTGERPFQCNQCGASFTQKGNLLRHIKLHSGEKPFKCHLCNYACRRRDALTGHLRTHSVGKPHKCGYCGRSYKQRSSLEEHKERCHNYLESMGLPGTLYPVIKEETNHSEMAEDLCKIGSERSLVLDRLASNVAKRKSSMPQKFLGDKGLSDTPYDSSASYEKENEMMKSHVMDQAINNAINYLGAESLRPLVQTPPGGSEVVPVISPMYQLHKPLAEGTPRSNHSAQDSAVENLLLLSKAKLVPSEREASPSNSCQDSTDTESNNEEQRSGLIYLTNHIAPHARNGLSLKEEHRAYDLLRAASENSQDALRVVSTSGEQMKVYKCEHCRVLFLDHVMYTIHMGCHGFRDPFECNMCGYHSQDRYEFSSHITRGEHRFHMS
T1 sequence (Q96SW2 whole entry): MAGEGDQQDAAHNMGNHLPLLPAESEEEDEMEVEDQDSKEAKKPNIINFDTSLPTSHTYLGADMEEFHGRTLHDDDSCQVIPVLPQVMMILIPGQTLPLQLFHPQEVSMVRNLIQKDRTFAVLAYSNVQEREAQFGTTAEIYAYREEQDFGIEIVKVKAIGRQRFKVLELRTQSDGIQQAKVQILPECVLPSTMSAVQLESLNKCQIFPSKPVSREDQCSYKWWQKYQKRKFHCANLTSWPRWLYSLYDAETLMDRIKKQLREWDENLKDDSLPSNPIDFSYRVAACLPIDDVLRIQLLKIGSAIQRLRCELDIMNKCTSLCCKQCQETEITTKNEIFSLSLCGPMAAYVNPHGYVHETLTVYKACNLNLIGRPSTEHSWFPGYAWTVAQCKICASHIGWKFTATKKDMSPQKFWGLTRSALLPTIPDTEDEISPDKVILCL
T1 sequence (Q16531 whole entry partner): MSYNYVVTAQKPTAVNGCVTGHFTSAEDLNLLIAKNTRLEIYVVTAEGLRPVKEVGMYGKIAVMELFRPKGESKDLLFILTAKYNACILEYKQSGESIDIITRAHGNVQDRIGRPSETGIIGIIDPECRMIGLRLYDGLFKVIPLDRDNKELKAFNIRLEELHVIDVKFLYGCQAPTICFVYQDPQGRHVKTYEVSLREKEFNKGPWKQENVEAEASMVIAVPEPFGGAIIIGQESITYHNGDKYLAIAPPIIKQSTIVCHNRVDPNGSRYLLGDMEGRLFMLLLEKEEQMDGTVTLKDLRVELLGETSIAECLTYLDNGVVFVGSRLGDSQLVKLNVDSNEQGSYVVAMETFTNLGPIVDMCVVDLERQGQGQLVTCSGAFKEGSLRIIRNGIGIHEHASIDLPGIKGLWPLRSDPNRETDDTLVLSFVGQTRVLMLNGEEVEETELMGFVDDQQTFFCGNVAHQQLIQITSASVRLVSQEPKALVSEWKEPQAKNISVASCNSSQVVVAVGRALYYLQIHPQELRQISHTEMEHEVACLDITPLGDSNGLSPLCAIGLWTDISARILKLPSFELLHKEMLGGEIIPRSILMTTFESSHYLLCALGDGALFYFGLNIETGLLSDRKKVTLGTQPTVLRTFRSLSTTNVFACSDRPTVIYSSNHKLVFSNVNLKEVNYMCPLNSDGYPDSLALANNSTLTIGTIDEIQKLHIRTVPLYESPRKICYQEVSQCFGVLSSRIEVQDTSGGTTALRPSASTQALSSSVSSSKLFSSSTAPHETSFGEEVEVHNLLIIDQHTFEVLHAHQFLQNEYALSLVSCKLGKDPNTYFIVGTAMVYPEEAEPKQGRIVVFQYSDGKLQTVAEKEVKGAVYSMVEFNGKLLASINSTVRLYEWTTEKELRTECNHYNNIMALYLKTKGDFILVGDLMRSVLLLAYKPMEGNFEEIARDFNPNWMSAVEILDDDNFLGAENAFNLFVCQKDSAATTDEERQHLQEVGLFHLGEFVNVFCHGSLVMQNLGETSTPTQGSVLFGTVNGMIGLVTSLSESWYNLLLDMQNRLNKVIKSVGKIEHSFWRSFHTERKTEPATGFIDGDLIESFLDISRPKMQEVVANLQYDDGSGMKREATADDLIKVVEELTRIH
T2 sequence (Q9UKT9 whole entry): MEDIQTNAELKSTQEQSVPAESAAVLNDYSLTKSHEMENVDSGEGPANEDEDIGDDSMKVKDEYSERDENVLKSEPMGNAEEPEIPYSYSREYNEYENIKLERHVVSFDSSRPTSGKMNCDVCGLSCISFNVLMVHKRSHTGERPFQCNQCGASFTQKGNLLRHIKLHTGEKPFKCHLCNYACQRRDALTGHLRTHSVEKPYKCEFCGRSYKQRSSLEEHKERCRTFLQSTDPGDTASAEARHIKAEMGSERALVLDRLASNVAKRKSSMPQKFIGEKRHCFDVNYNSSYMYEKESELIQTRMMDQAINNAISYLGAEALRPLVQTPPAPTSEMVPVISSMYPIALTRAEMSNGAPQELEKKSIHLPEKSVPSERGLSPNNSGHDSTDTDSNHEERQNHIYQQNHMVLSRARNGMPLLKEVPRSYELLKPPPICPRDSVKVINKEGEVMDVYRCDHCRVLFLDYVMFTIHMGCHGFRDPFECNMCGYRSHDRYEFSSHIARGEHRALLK
T2 sequence (Q96SW2 whole entry): as the sequence (Q96SW2 whole entry) above
T2 sequence (Q16531 whole entry partner): as the sequence (Q16531 whole entry partner) above
T3 sequence (Q9UJQ4 whole entry): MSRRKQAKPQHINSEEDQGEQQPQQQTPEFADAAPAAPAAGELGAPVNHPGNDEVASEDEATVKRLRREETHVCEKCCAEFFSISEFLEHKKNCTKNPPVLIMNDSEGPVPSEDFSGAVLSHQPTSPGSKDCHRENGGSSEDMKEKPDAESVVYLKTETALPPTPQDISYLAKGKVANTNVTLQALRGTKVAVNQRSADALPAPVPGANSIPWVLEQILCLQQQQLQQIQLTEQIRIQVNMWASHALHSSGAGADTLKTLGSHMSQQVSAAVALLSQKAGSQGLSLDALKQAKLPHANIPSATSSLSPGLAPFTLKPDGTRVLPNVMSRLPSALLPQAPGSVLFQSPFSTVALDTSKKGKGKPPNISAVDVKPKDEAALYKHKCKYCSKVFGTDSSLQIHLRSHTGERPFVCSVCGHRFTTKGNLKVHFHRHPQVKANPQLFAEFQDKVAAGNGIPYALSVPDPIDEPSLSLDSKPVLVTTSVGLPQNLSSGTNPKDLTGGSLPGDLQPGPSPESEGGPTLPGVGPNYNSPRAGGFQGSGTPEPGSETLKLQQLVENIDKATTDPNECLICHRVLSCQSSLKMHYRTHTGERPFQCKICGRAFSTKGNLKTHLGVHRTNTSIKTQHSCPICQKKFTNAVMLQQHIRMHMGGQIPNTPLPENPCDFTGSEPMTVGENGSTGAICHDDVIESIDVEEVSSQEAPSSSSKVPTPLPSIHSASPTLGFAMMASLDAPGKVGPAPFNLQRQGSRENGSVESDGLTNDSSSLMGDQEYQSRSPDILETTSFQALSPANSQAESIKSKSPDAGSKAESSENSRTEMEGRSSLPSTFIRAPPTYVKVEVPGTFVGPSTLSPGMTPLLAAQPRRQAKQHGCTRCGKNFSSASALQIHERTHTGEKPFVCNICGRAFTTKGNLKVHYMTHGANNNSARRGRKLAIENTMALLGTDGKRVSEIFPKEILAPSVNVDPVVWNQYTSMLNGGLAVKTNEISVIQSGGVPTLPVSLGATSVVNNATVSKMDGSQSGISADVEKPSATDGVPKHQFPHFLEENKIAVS
T3 sequence (Q96SW2 whole entry): as the sequence (Q96SW2 whole entry) above
T3 sequence (Q16531 whole entry partner): as the sequence (Q16531 whole entry partner) above

inhibition at 10 µM ([3]; 10 uM): 0 to 24% | inhibition at 20 µM ([3]; 20 uM): 0 to 24% | IC50 [4]: > 30 µM | IC50 [6]: > 30 µM | % of SALL4 protein reduction [11]: >80% | IC50 ([12]; read-out: Absolute IC50): ≥ 30 µM | IC50 [13]: > 30 µM
SMILES: NCc1ccc2c(c1)CN(C1CCC(=O)NC1=O)C2=O (centres unmarked) [Compound 1, 3-(5-(aminomethyl)-1-oxoisoindolin-2-yl)piperidine-2,6-dione]
IC50 [1]: > 30 µM | IC50 [2]: > 30 µM | viability at 9.5 µM [5, 14]: ≤ 30% | IC50 ([5]; read-out: Absolute IC50): ≤ 0.1 µM | IC50 [7]: > 30 µM | % of IKZF3 protein reduction [8]: C (C represents 0-24% of IKZF1 protein reduction) | survival of the cells (colony formation) [9]: in most cases inhibited | viability at 9.5 µM [10, 14]: ≤ 30% | IC50 ([10]; read-out: Absolute IC50): ≤ 0.1 µM | viability at 9.5 µM [12, 14]: ≤ 60%
